Measured values from the NIST ThermoML archive (doi:10.1016/j.tca.2011.06.003).

Test: xn = mol fraction of the nth substance listed
Settings: 101 kPa, Liquid; for mass density: Vibrating tube method; for speed of sound: Sing-around technique in a fixed-path interferometer

NCCNCCN [di(2-aminoethyl)amine] + CCCCO
Settings | mass density, 303.15 K [kg/m3] | mass density, 308.15 K [kg/m3] | mass density, 313.15 K [kg/m3] | speed of sound, 308.15 K [m/s] | speed of sound, 313.15 K [m/s] | viscosity, 303.15 K [mPa·s] | viscosity, 308.15 K [mPa·s]
x1 = 0.0517 | – | 810.286 | 806.326 | 1237.4 | 1220.9 | 2.576 | 2.27
x1 = 0.1085 | – | 822.424 | 818.415 | 1269.3 | 1253.3 | 3.027 | 2.622
x1 = 0.153 | – | 831.084 | 827.042 | 1293.2 | 1277.3 | 3.256 | 2.81
x1 = 0.2024 | – | 839.988 | 835.917 | 1318.5 | 1302.4 | 3.52 | 3.027
x1 = 0.2524 | – | 848.419 | 844.331 | 1343 | 1327.4 | 3.768 | 3.198
x1 = 0.3079 | – | 857.059 | 852.959 | 1368.6 | 1352.7 | 3.919 | 3.341
x1 = 0.4082 | – | 871.155 | 867.047 | 1412.2 | 1396.2 | 4.169 | 3.524
x1 = 0.5013 | 887.28 | 883.174 | 879.057 | 1450.2 | 1433.9 | 4.262 | 3.617
x1 = 0.6067 | 899.921 | 895.798 | 891.664 | 1490 | 1473.9 | 4.302 | 3.642
x1 = 0.7079 | 911.479 | 907.33 | 903.173 | 1527.2 | 1510.5 | 4.323 | 3.671
x1 = 0.8 | 921.305 | 917.129 | 912.964 | 1560.9 | 1543.6 | 4.335 | 3.689
x1 = 0.8548 | 927.266 | 923.082 | 918.81 | 1580.1 | 1563 | 4.346 | 3.712
x1 = 0.9075 | 932.668 | 928.432 | 924.23 | 1598.6 | 1580.1 | 4.366 | 3.731
x1 = 0.9525 | 937.017 | 932.798 | 928.584 | 1614.5 | 1594.8 | 4.422 | 3.771
